These results are taken from paper PMC4991342 (Virulence, 2016).

For data set [1], the system named is mouse lymphoma L5178Y/TK^+/− cells (clone 3.7.2C). The experiment in a line: In vitro mammalian cell gene mutation test. Format: cell-based. The settings on record: 4 h without S9-mix.
Another data set has as its system P. falciparum malaria. The following applies: oral monotherapy; clinical phase II; cited from earlier work.
In data set [2] the target is recombinant P. falciparum DXP reductoisomerase. The following applies: read-out: IC50 for recombinant P. falciparum DXP reductoisomerase; cited from earlier work.
Data set [3] relates to acute urinary tract infections. The following applies: 70 patients with acute urinary tract infections; no details published; cited from earlier work.

Molecules are shown by their SMILES. pIC50: −log10 of the molar value.

With `COS(C)(=O)=O` [MMS, methyl methanesulfonate], the “MF (mutant frequency)” value in data set [1] (MMS 10 µg/ml (positive control), relevant increase) is reported as 475.5 × 10^−6. The “mean MF compared to the negative controls” value in data set [1] (MMS 10 µg/ml) is on record as 626%.

Take `O=CN(O)CCCP(=O)(O)O` [fosmidomycin]: in the data set with P. falciparum malaria, the recrudescence result is reported as “high rate of recrudescent infections”. Also, in data set [2], the pIC50 is 7.49. In data set [3], the antibacterial efficacy result is reported as “strong antibacterial efficacy”.
